# Measured values reported in patent US9771369B2, “Compounds and methods for kinase modulation, and indications therefor” (Plexxikon Inc., priority 2014, dated 2017).
# Target: c-Kit kinase (Homo sapiens (Human), UniProt P10721)
# Assay: c-Kit biochemical assay (AlphaScreen kinase activity)
# In short: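 IC50 values come from 8-point, 1:3 compound titrations measuring inhibition of peptide phosphorylation by c-Kit (commercial or His-tagged E. coli-expressed) over 1 h at room temperature, read by AlphaScreen PY30/streptavidin beads. Low-ATP version: 10 μM ATP, 100 nM biotin-(E4Y)3; high-ATP version: 100 μM ATP, 30 nM biotin-(E4Y)10.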
# c-Kit kinase, sequence (P10721 26-976): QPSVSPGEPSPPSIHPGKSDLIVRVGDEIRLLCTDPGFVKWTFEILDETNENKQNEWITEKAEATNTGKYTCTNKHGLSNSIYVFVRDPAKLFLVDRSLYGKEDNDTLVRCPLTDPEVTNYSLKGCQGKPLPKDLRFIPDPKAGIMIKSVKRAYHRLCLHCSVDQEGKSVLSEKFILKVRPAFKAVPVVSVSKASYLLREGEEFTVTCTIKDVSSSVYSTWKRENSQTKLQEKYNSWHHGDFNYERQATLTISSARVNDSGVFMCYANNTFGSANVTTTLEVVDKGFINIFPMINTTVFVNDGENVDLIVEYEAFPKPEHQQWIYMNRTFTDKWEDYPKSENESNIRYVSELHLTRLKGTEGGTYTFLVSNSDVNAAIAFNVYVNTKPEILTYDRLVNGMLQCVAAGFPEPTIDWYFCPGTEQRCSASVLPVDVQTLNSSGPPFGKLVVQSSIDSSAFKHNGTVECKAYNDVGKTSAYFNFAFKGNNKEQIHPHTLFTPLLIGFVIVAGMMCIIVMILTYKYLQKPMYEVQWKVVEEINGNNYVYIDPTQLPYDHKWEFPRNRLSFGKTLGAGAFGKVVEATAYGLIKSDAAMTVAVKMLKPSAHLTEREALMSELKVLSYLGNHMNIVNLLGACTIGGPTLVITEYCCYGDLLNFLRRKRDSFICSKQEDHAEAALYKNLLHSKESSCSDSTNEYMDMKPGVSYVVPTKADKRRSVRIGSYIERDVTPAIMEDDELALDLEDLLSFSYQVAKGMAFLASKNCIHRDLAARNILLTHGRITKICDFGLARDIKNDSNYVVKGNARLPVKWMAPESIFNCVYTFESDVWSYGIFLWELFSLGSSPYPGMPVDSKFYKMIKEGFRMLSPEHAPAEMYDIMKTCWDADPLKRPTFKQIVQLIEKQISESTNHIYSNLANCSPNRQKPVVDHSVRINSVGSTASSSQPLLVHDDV
row,Structure (SMILES),IC50 [µM]
1,"CCOc1ccc(-c2[nH]c(C3(C)CCN(c4ncnc5[nH]c(-c6ccc(N7CCOCC7)nc6)cc45)CC3)nc2C)cc1 [P-3227, 4-[5-[4-[4-[5-(4-ethoxyphenyl)-4-methyl-1H-imidazol-2-yl]-4-methyl-1-piperidyl]-7H-pyrrolo[2,3-d]pyrimidin-6-yl]-2-pyridyl]morpholine]",0.0001 to 1
2,"COc1ccc(-c2[nH]c(C3(C)CCN(c4ncnc5[nH]c(-c6ccc(NS(C)(=O)=O)cc6)cc45)CC3)nc2C)cc1C [P-3228, N-[4-[4-[4-[5-(4-methoxy-3-methyl-phenyl)-4-methyl-1H-imidazol-2-yl]-4-methyl-1-piperidyl]-7H-pyrrolo[2,3-d]pyrimidin-6-yl]phenyl]methanesulfonamide]",0.0001 to 1
3,"CCOc1ccc(-c2[nH]c(C3(C)CCN(c4ncnc5[nH]c(-c6ccc(C(N)=O)cc6)cc45)CC3)nc2C)cc1 [P-3229, 4-[4-[4-[5-(4-ethoxyphenyl)-4-methyl-1H-imidazol-2-yl]-4-methyl-1-piperidyl]-7H-pyrrolo[2,3-d]pyrimidin-6-yl]benzamide]",0.0001 to 1
4,"CCOc1ccc(-c2[nH]c(C3(C)CCN(c4ncnc5[nH]c(-c6ccc(NS(C)(=O)=O)cc6)cc45)CC3)nc2C)cc1 [P-3230, N-[4-[4-[4-[5-(4-ethoxyphenyl)-4-methyl-1H-imidazol-2-yl]-4-methyl-1-piperidyl]-7H-pyrrolo[2,3-d]pyrimidin-6-yl]phenyl]methanesulfonamide]",0.0001 to 1
5,"Cc1nc(C2(C)CCN(c3ncnc4[nH]c(-c5ccc(C(N)=O)cc5)cc34)CC2)[nH]c1-c1cccc(OC(F)F)c1 [P-3231, 4-[4-[4-[5-[3-(difluoromethoxy)phenyl]-4-methyl-1H-imidazol-2-yl]-4-methyl-1-piperidyl]-7H-pyrrolo[2,3-d]pyrimidin-6-yl]benzamide]",0.0001 to 1
6,"Cc1nc(C2(C)CCN(c3ncnc4[nH]c(-c5ccc(NS(C)(=O)=O)cc5)cc34)CC2)[nH]c1-c1cccc(OC(F)F)c1 [P-3232, N-[4-[4-[4-[5-[3-(difluoromethoxy)phenyl]-4-methyl-1H-imidazol-2-yl]-4-methyl-1-piperidyl]-7H-pyrrolo[2,3-d]pyrimidin-6-yl]phenyl]methanesulfonamide]",0.0001 to 1
7,"Cc1nc(C2(C)CCN(c3ncnc4[nH]c(-c5ccc(OCC(=O)O)cc5)cc34)CC2)[nH]c1-c1cccc(OC(F)F)c1 [P-3233, 2-[4-[4-[4-[5-[3-(difluoromethoxy)phenyl]-4-methyl-1H-imidazol-2-yl]-4-methyl-1-piperidyl]-7H-pyrrolo[2,3-d]pyrimidin-6-yl]phenoxy]acetic acid]",0.0001 to 1
8,"COc1cccc(-c2[nH]c(C3(C)CCN(c4ncnc5[nH]c(-c6ccc(NS(C)(=O)=O)cc6)cc45)CC3)nc2C)c1 [P-3234, N-[4-[4-[4-[5-(3-methoxyphenyl)-4-methyl-1H-imidazol-2-yl]-4-methyl-1-piperidyl]-7H-pyrrolo[2,3-d]pyrimidin-6-yl]phenyl]methanesulfonamide]",0.0001 to 1
9,"CNC(=O)c1ccc(-c2cc3c(N4CCC(C)(c5nc(C)c(-c6ccc(C(F)F)cc6)[nH]5)CC4)ncnc3[nH]2)cn1 [P-3235, 5-[4-[4-[5-[4-(difluoromethyl)phenyl]-4-methyl-1H-imidazol-2-yl]-4-methyl-1-piperidyl]-7H-pyrrolo[2,3-d]pyrimidin-6-yl]-N-methyl-pyridine-2-carboxamide]",0.0001 to 1
10,"CNC(=O)c1ccc(-c2cc3c(N4CCC(C)(c5nc(C)c(-c6cccc(OC(F)F)c6)[nH]5)CC4)ncnc3[nH]2)cn1 [P-3236, 5-[4-[4-[5-[3-(difluoromethoxy)phenyl]-4-methyl-1H-imidazol-2-yl]-4-methyl-1-piperidyl]-7H-pyrrolo[2,3-d]pyrimidin-6-yl]-N-methyl-pyridine-2-carb oxamide]",0.0001 to 1
11,"Cc1nc(C2(C)CCN(c3ncnc4[nH]c(-c5ccc(N6CCOCC6)nc5)cc34)CC2)[nH]c1-c1ccc(C(F)F)cc1 [P-3237, 4-[5-[4-[4-[5-[4-(difluoromethyl)phenyl]-4-methyl-1H-imidazol-2-yl]-4-methyl-1-piperidyl]-7H-pyrrolo[2,3-d]pyrimidin-6-yl]-2-pyridyl]morpholine]",0.0001 to 1
